Our source for the remaining binding values is publication PMC4457528, “Identification of Novel Small Molecule Inhibitors of Oncogenic RET Kinase” (PLoS ONE, 2015).

Read-outs that look alike come from different tables or passages of the source.

What all share (assay): KinomeScan kinase panel, single concentration 10 µM
What all share (assay type): binding

Experiment [1] has as its target T1, KinomeScan kinase panel (Homo sapiens, UniProt P52564).
T1 construct: purchased DiscoveRx (KinomeScan)
T1 sequence (P52564 1-334): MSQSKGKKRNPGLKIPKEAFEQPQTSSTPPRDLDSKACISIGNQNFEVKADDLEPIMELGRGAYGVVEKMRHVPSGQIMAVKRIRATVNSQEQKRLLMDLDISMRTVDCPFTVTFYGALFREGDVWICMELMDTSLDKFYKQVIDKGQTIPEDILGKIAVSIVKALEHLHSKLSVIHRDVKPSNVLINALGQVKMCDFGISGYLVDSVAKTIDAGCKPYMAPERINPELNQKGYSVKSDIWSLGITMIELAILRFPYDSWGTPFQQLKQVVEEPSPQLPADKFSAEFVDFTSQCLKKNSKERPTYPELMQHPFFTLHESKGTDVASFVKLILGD
The note with it: MEK6, 10 µM; read-out: score (%).

Experiment [2] has as its target T2, KinomeScan kinase panel (Homo sapiens, UniProt Q7L7X3).
T2 construct: purchased DiscoveRx (KinomeScan)
T2 sequence (Q7L7X3 1-1001): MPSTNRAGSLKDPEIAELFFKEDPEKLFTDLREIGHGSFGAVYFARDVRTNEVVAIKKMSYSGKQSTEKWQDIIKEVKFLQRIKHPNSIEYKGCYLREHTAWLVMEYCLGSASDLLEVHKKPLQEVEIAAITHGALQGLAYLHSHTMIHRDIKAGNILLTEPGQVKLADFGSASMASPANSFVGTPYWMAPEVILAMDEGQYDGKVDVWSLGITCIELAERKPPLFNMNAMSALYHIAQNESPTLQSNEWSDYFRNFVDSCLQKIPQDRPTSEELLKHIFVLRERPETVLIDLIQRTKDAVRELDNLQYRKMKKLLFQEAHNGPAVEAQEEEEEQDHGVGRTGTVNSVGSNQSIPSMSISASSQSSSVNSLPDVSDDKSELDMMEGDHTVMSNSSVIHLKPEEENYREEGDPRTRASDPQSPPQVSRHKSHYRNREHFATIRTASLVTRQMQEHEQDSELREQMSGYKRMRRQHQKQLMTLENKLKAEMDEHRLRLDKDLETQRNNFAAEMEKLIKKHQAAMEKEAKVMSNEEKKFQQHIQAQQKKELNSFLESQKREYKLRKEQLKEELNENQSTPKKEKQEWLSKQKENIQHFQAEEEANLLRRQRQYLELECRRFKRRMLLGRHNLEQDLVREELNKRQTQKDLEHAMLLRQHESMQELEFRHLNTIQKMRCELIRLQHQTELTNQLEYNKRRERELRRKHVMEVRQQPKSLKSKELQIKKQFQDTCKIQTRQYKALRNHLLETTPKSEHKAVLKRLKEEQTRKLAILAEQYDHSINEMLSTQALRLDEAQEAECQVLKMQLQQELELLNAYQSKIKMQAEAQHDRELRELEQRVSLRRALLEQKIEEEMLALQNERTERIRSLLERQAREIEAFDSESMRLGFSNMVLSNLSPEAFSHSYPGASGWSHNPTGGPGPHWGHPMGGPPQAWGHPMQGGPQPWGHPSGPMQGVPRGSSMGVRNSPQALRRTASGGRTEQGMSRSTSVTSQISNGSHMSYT
The note with it: read-out: score (%).

Experiment [3] concerns the target T3, KinomeScan kinase panel (Homo sapiens, UniProt O15111).
T3 construct: purchased DiscoveRx (KinomeScan)
T3 sequence (O15111 1-745): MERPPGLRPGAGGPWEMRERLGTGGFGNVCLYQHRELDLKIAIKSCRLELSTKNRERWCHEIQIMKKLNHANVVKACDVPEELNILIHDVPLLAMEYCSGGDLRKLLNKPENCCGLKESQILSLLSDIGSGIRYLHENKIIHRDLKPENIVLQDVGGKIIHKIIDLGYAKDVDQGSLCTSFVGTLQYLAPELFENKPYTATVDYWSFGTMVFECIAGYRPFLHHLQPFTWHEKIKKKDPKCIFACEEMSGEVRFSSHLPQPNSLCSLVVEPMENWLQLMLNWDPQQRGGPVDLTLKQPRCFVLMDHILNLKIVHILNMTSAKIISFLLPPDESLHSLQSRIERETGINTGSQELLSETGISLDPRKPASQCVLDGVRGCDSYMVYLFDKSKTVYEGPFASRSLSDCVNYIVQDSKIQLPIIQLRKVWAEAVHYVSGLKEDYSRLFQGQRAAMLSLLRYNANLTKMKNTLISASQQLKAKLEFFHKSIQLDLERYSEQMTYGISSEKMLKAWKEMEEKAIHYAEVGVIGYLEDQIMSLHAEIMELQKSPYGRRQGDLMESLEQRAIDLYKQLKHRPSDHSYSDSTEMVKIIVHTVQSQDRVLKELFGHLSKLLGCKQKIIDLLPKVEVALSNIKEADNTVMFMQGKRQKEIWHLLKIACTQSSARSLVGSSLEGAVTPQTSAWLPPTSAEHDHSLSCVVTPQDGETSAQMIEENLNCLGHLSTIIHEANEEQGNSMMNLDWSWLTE
The note with it: IKK-alpha, 10 µM; read-out: score (%).

In experiment [4] the target is T4, KinomeScan kinase panel (Homo sapiens, UniProt P10721).
T4 construct: purchased DiscoveRx (KinomeScan)
T4 sequence (P10721 26-976): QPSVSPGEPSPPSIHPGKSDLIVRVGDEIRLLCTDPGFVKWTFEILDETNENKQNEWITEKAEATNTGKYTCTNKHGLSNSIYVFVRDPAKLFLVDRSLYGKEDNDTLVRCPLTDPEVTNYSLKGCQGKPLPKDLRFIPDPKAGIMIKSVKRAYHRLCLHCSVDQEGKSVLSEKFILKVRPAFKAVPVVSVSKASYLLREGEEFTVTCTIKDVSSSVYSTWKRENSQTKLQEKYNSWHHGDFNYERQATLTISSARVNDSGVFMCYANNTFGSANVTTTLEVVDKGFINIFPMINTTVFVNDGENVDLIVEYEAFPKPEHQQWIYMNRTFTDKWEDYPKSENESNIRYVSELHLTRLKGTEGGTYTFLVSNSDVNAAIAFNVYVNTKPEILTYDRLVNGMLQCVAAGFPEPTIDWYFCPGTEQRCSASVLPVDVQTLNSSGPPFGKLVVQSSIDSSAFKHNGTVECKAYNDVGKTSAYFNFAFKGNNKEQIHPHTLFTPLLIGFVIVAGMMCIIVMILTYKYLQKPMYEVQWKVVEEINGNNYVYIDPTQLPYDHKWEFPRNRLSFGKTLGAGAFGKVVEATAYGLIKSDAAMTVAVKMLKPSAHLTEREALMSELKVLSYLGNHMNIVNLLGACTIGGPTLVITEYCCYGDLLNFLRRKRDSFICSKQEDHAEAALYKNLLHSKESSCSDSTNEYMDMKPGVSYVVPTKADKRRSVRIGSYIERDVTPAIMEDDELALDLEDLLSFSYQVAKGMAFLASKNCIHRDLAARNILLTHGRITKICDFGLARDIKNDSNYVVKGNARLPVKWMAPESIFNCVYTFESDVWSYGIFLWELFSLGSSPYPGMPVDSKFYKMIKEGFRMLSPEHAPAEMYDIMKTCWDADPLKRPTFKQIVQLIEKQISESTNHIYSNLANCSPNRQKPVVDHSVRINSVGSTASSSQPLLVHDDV
The note with it: KIT, 10 µM; read-out: score (%).

The target in experiment [5] is T5, KinomeScan kinase panel (Homo sapiens, UniProt P42338).
T5 construct: purchased DiscoveRx (KinomeScan)
T5 sequence (P42338 whole entry): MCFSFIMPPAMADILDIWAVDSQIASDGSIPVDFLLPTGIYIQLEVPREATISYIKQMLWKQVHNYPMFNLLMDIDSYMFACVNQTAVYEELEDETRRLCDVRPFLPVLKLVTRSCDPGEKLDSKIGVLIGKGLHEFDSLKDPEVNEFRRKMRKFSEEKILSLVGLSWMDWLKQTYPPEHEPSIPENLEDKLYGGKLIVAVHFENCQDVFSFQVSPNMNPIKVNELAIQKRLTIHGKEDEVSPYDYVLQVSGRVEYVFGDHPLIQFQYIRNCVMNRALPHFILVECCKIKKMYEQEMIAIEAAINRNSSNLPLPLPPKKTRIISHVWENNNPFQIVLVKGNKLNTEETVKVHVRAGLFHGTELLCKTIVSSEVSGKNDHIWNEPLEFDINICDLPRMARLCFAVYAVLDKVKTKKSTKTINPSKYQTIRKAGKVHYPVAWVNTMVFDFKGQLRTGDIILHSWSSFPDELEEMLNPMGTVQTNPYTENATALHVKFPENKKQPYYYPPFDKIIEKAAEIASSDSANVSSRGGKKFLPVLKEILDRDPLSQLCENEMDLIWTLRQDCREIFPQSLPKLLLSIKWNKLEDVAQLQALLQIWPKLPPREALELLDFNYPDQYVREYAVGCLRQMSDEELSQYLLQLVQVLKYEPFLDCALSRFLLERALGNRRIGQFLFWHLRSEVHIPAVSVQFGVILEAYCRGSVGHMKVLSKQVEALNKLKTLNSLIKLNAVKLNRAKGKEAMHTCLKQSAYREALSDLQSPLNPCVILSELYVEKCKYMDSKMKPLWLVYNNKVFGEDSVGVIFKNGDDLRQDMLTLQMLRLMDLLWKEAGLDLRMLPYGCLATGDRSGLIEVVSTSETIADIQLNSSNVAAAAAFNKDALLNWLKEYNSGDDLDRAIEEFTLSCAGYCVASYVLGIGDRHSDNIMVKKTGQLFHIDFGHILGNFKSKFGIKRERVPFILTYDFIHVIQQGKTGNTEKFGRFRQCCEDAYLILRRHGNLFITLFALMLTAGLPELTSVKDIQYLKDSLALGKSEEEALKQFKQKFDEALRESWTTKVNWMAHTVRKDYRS
Conditions: PIK3CB, 10 µM; read-out: score (%).

Turning to `CCN1CCN(Cc2ccc(NC(=O)c3ccc(C)c(NC(=O)c4cncc(-c5cccs5)c4)c3)cc2C(F)(F)F)CC1` [ALW-II-41-27], the remaining binding at 10 µM on KinomeScan kinase panel [1] was > 30%; at KinomeScan kinase panel [2] (kinase TAOK1, 10 µM), > 30%; at KinomeScan kinase panel [3], 3.3%; on KinomeScan kinase panel [4], 0%; on KinomeScan kinase panel [5], > 30%.
In the case of `CCN1CCN(Cc2ccc(NC(=O)c3ccc(C)c(/C=C/c4cnc5[nH]ccc5c4Cl)c3)cc2C(F)(F)F)CC1` [HG-6-63-01, (E)-3-(2-(4-chloro-1H-pyrrolo[2,3-b]pyridin-5-yl)vinyl)-N-(4-((4-ethylpiperazin-1-yl)methyl)-3-(trifluoromethyl)phenyl)-4-methylbenzamide], the remaining binding at 10 µM is > 30% at KinomeScan kinase panel [1]; 6.5% on KinomeScan kinase panel [2] (TAOK1, 10 µM); 0.75% on KinomeScan kinase panel [3]; 0% on KinomeScan kinase panel [4]; > 30% at KinomeScan kinase panel [5].
Turning to `CCN1CCN(Cc2ccc(NC(=O)c3ccc(C)c(C#Cc4cccnc4)c3)cc2C(F)(F)F)CC1` [XMD15-44], the remaining binding at 10 µM at KinomeScan kinase panel [1] is > 30%; at KinomeScan kinase panel [2] (kinase TAOK1, 10 µM) it was 0.25%; on KinomeScan kinase panel [3], 0%; on KinomeScan kinase panel [4], 0%; at KinomeScan kinase panel [5], 100%.
